Results as given in paper PMC8400343, “Synthesis and Evaluation of the Antidepressant-like Properties of HBK-10, a Novel 2-Methoxyphenylpiperazine Derivative Targeting the 5-HT1A and D2 Receptors” (Pharmaceuticals, 2021).
Where a name gives a salt, the structure may show the parent alone. Read-outs that look alike come from different tables or passages of the source. Marks after values point to notes of the source that are not given here. One block for each compound: values may come before it.

How the values were obtained:
[1] = MLMs, cited from earlier work; for % Remaining after 30 min: protein concentration 0.5
mice [2] = experiment: Forced swim test in naive mice; assay type: in vivo, mouse; conditions: alone
Procedure: Adult male Albino-Swiss mice (CD-1, 8 weeks old, 18–21g: Jagiellonian University Medical College, Krakow, Poland) were used in all experiments. Unless stated otherwise, the animals were kept in groups of 10 mice in standard cages (37 cm × 21 cm × 15 cm) at a room temperature (22 ± 2 °C), on a 12 h light/dark cycle (lights on 7:00) with ad libitum access to food and water. Mice were used only once in each test. Behavioral experiments were performed between 8 am and 4 pm and evaluated by a trained observer blind to the treatments. Mice were handled for 1 week before starting the experimental procedures. Animals were randomly allocated to the treatment using a computer-generated sequence, and researchers making measurements on the animals or analyzing the results were blind to the allocation. Moreover, experimental groups were distributed across multiple cages, and the location of the mouse cages in the room was changed following each day.
HBK-10, WAY-100635 (Sigma, Darmstadt, Germany), p-chlorophenylalanine (pCPA; Sigma, Darmstadt, Germany), fluoxetine (Sigma, Darmstadt, Germany), reboxetine (Sigma, Darmstadt, Germany) and bupropion (Sigma, Darmstadt, Germany), were suspended in 1% Tween, and administered ip at a volume of 10 mL/kg 30 min before each behavioral test. The control groups received saline ip 30 min prior to testing. The doses of fluoxetine, reboxetine and bupropion as well as WAY-100635 and pCPA were based on our previous studies with 2-methoxyphenylpiperazine derivatives.
(§1) The experiment was performed on mice according to the method described by Porsolt et al. and as previously described. Mice were placed individually in glass cylinders (height 25 cm, diameter 10 cm) filled with water at 24 ± 1 °C to a depth of 10 cm and left there for 6 min. Following a 2 min habituation period, total time spent immobile was recorded during the next 4 min. The animal was considered as immobile when it remained floating passively in the water, making only small movements to keep its head above the water. The experiments were video-recorded and scored using elevenmaze.com software by a trained observer blind to the treatments.
To assess the involvement of a serotonergic system in the antidepressant-like activity of tested compounds in the forced swim test, the mice were pretreated with pCPA (tryptophan hydroxylase inhibitor) according to the method previously described. […]. Twenty-four hours after the last pCPA administration, we injected mice with 1% Tween ip or tested compound. We performed the forced swim test 30 min after the administration.
The putative involvement of 5-HT1A receptors in the antidepressant-like effect of tested compound was studied using WAY-100635 (a selective 5-HT1A receptor antagonist). WAY-100635 at a dose of 0.1 mg/kg was administered sc 15 min prior to the injection of HBK-10. After 30 min the forced swim test was performed. The behaviorally ineffective dose of WAY-100635 used in the experiments was based on our previous experiments.

[3] = tested on: corticosterone-treated mice; experiment: Forced swim test in corticosterone-induced mouse model of depression; assay type: in vivo; conditions: fluoxetine 15 mg/kg ip, chronic (3 weeks)
Procedure: as §1
(§2) Mice were injected with corticosterone (sc, 20 mg/kg) at random times during the light phase for 21 days. The dose and route of administration of corticosterone were based on our previous study. Control mice received saline containing 0.1% dimethyl sulfoxide (DMSO) and 0.1% Tween (sc). For the next 21 days, 30 min before the corticosterone injection, mice were injected with saline, HBK-10 (0.625 or 1.25 mg/kg), or fluoxetine (15 mg/kg) (ip). Twenty-four hours after the last injection, animals were tested in the forced swim test and locomotor activity test (Figure 8).

[4] = tested on: corticosterone-treated mice; experiment: Locomotor activity in corticosterone-treated mice; assay type: in vivo, mouse; conditions: 15 mg/kg ip chronic, 4 min
Procedure: The locomotor activity of mice was measured as previously described. We used photoresistor actometers (Ugo Basile, Italy) connected to a counter for the recording of light-beam interruptions. Mice were placed individually in cages for 30 min, and the number of crossings of the light beams was recorded as the locomotor activity for 4 min.
as §2

mice [5] = conditions: i.p.; cited from earlier work
mice [6] = conditions: i.p.; cited from earlier work; remark: listed apart in the source
[7] = molecular target: voltage-sensitive calcium channels (Cav); set-up: method as in PMID 10073136; conditions: read-out: Ki Cav [3H]-nitrendipine; cited from earlier work
serotonin level = tested on: serotonin level; set-up: method as in PMID 9044239; conditions: 3-day treatment with pCPA; cited from earlier work
5-HT1A = molecular target: 5-HT1A; set-up: method as in PMID 10073136; conditions: cited from earlier work
5-HT2A = molecular target: 5-HT2A; set-up: method as in PMID 10073136; conditions: cited from earlier work
α1-adrenoceptor = molecular target: α1-adrenoceptor; set-up: method as in PMID 10073136; conditions: cited from earlier work

Structure (SMILES): O=C1CC2(CCCC2)CC(=O)N1CCCCN1CCN(c2ncccn2)CC1 [Buspirone]
% Remaining after 30 min [1]: 0.29 ^a % | % Remaining after 30 min ([1]; listed as buspirone): lower than 1%

Structure (SMILES): COc1ccccc1N1CCN(CCN(C(=O)C2CCCCC2)c2ccccn2)CC1 [WAY-100635, reference compound]
Effect on immobility in the forced swim test (mice [2]; WAY-100635 0.1 mg/kg sc): had no effect on the immobility

Number of Crossings ± SEM [4]: 462.5 ± 41.81
Structure (SMILES): CNCCC(Oc1ccc(C(F)(F)F)cc1)c1ccccc1 (stereo not drawn) [Fluoxetine, reference compound]
Decrease of immobility in the forced swim test in corticosterone-treated mice [3]: 32%

Structure (SMILES): CC[C@@H](CO)NCCOc1c(C)cccc1C [Compd. II, (S)-{2-[(2-(2,6-dimethylphenoxy)ethyl]amino}butan-1-ol hydrochloride]
MES ED50 (mice [5]): 7.57 mg/kg | Rotarod test TD50 (mice [6]): 34.45 mg/kg | Ki [7]: 18000 nM

Structure (SMILES): N[C@@H](Cc1ccc(Cl)cc1)C(=O)O (racemic) [pCPA, p-chlorophenylalanine]
Effect on immobility in the forced swim test (mice [2]; pCPA 200 mg/kg ip once daily for three days): had no effect on the immobility | Reduction of serotonin level in midbrain (serotonin level): 24% | Reduction of serotonin level in the cortical regions (serotonin level): around 30%

Structure (SMILES): COc1ccccc1N1CCN(CCCOc2c(C)cccc2C)CC1 [Compd. I, 1-[3-(2,6-dimethylphenoxy)propyl]-4-(2-methoxyphenyl)piperazine hydrochloride]
Ki (5-HT1A): 4.9 nM | Ki (5-HT2A): 192 nM | Ki (α1-adrenoceptor): 2.1 nM

Structure (SMILES): O=C1CCc2ccc(OCCCCN3CCN(c4cccc(Cl)c4Cl)CC3)cc2N1 [Aripiprazole]
t1/2 ([1]; protein concentration 1.0): 217 ^b min
